Activity calls are given as the source filed them.
Key:
[1] = target: Potassium voltage-gated channel subfamily KQT member 2 (Rattus norvegicus, UniProt O88943); test: blockers of KCNQ2 channel current – cell-based, automated electrophysiology, set II, rat KCNQ2, dose response (AID 588637); assay type: functional
[2] = target: T1, Heat shock factor protein 1 (Mus musculus, UniProt P38532); test: decrease of HSF1-responsive luciferase luminescence – cell-based, NIH3T3, dose retest, confirmation (AID 2382); assay type: functional;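 further: NIH3T3 fibroblasts with HSF1-driven luciferase reporter stressed by proteasome inhibitor MG132; luminescence from HSF1-driven luciferase expression after 8 hours of MG132 stress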
T1 sequence (P38532 whole entry): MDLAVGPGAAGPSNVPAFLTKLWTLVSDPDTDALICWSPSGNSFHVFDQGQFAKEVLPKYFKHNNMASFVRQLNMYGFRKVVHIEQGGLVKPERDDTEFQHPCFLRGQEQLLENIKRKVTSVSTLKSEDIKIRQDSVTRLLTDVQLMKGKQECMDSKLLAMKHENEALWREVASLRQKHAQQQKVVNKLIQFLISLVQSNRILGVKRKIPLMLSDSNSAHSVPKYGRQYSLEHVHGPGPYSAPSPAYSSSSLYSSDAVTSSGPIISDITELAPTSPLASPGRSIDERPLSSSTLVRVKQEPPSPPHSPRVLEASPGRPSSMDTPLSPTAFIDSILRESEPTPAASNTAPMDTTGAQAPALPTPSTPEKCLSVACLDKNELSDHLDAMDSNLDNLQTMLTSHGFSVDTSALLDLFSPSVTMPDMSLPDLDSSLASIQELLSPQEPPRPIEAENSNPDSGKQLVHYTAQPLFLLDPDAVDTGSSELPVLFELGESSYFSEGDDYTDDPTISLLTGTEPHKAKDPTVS

[3] = target: Palmitoyl-protein thioesterase ABHD10, mitochondrial (Mus musculus, UniProt Q6PE15); test: Late stage assay provider results from the probe development effort to identify inhibitors of PME-1: fluorescence-based dose response biochemical gel-based competitive Activity-Based Protein Profiling (ABPP) inhibition of ABHD10 Set 1.; assay type: functional
[4] = target: T2, Microphthalmia-associated transcription factor (Homo sapiens, UniProt O75030); test: reducers of TRPM1 reporter luminescence, concentration series – cell-based, SK-MEL-5, cherry-picked, set 3, MITF inhibitor project, dose response (AID 493073); assay type: functional;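 further: SK-MEL-5 melanoma cells with luciferase driven by the MITF target TRPM1 promoter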
T2 sequence (O75030 whole entry): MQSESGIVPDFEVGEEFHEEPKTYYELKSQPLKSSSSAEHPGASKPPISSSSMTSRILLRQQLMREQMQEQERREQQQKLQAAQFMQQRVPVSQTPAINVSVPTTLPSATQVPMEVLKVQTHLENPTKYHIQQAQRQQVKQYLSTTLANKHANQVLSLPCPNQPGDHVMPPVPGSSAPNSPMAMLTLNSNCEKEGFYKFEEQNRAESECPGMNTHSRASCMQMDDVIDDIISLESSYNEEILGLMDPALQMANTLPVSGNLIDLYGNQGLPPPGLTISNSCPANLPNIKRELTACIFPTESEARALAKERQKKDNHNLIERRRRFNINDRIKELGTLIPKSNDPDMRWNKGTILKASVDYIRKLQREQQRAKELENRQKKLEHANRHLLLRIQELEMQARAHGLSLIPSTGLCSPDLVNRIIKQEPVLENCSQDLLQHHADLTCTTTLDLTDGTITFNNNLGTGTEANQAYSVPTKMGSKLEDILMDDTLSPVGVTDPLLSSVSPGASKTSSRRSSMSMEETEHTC

[5] = Counterscreen for inhibitors of Trypanosoma brucei methionyl tRNA synthetase (MetRS): Luminescence-based cell-based high throughput dose response assay to identify compounds that are cytotoxic to Jurkat human T lymphocyte cells.; assay type: functional
[6] = target: T3, Methionyl-tRNA synthetase, putative (Trypanosoma brucei brucei, UniProt Q38C91); assay type: functional, Trypanosoma brucei brucei strain 927/4 GUTat10.1
T3 sequence (Q38C91 whole entry): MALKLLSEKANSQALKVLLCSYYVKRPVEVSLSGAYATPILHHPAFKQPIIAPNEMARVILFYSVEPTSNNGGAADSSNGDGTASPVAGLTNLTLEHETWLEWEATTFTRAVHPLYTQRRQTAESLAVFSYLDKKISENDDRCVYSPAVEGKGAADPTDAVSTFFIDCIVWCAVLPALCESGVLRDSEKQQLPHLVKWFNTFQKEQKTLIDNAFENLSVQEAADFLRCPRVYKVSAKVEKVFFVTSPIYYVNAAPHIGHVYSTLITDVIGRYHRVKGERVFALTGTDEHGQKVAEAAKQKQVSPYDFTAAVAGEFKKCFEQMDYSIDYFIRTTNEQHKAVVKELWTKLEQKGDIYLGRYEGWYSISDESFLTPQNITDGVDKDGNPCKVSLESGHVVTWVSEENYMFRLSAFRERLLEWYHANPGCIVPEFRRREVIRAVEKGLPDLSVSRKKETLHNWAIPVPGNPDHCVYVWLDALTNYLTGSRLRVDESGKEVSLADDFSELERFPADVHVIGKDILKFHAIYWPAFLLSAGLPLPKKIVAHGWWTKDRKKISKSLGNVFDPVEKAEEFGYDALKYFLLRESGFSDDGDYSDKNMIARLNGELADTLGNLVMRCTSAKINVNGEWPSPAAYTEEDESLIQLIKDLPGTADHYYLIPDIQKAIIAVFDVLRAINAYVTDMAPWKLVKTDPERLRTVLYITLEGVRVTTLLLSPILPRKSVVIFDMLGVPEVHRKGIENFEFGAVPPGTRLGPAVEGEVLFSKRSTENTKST

[7] = target: T3, Methionyl-tRNA synthetase, putative; assay type: functional, Trypanosoma brucei brucei strain 927/4 GUTat10.1; remark: listed apart in the source
[8] = target: Induced myeloid leukemia cell differentiation protein Mcl-1 (Homo sapiens, UniProt Q07820); assay type: functional
Induced myeloid leukemia cell differentiation protein Mcl-1, sequence (Q07820 whole entry): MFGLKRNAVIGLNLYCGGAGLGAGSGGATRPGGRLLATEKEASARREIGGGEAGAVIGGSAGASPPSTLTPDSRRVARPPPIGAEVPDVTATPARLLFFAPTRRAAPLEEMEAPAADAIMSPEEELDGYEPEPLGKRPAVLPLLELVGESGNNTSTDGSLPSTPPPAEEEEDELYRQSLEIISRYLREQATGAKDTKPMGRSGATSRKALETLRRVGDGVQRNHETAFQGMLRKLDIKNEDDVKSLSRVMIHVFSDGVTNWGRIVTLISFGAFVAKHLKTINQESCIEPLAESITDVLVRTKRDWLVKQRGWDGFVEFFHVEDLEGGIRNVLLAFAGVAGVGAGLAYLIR

Vero = test: viability loss in Vero cells – cell-based, plate reader, cherry-pick samples, cytotoxicity control, dose response (AID 687020); assay type: functional; details: Chlorocebus sabaeus
[9] = target: T4, Botulinum neurotoxin type F (Clostridium botulinum, UniProt P30996); test: High-throughput multiplex microsphere dose response for inhibitors of toxin protease, specifically Botulinum neurotoxin light chain F protease, compounds from Cherry Pick 02.; assay type: functional; details: read-out: EC50_MICROM
T4 sequence (P30996 1-436 limits assumed): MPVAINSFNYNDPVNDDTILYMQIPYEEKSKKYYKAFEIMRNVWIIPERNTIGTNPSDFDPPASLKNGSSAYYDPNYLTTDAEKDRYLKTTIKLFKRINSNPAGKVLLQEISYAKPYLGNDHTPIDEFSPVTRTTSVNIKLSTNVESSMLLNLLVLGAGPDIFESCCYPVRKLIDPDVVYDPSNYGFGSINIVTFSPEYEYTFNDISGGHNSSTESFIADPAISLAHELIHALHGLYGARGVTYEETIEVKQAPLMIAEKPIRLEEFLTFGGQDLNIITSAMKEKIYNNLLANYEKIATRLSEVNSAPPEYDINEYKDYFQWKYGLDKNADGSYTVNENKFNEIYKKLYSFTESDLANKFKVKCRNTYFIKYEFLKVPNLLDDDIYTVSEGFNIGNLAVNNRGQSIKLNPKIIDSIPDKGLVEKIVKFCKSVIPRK

[10] = target: T4, Botulinum neurotoxin type F; test: High-throughput multiplex microsphere dose response for inhibitors of toxin protease, specifically Botulinum neurotoxin light chain F protease, compounds from Cherry Pick 01.; assay type: functional; details: read-out: EC50_MICROM
[11] = inhibition of ARNT PAS-B/TACC3 complex formation – biochemical, AlphaScreen, cherry-picked samples, confirmation (AID 651703); assay type: functional, Homo sapiens;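 further: His-tagged ARNT PAS-B domain paired with GST-TACC3 E629A dimer coactivator fragment; potency of inhibitors that break up the complex and lower AlphaScreen signal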
Caspase-3 = target: T5, Caspase-3 (Homo sapiens, UniProt P42574); test: Dose-response confirmation of uHTS inhibitor hits of Sentrin-Specific Protease 8 in a Caspase-3 Fluorescence assay.; assay type: functional
T5 sequence (P42574 whole entry): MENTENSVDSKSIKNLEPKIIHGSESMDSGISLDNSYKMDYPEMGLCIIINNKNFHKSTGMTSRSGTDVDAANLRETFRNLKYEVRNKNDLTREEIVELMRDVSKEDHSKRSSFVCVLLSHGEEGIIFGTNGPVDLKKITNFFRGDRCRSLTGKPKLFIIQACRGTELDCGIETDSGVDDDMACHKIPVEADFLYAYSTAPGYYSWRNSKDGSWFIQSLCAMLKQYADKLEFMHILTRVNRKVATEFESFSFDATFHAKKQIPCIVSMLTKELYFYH

[12] = target: T6, Sentrin-specific protease 8 (Homo sapiens, UniProt Q96LD8); assay type: functional
T6 sequence (Q96LD8 whole entry): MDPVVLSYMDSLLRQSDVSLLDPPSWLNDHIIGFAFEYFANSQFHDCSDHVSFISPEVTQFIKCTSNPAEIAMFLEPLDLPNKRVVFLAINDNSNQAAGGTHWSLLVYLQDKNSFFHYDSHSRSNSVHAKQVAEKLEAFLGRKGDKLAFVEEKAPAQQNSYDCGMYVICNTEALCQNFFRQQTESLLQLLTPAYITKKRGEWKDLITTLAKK

Coagulation factor XII = target: T7, Coagulation factor XII (Homo sapiens, UniProt P00748); assay type: functional;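 further: activated factor XIIa alpha cleaving a fluorogenic AMC peptide substrate; inhibitor potency from loss of enzyme activity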
T7 sequence (P00748 whole entry): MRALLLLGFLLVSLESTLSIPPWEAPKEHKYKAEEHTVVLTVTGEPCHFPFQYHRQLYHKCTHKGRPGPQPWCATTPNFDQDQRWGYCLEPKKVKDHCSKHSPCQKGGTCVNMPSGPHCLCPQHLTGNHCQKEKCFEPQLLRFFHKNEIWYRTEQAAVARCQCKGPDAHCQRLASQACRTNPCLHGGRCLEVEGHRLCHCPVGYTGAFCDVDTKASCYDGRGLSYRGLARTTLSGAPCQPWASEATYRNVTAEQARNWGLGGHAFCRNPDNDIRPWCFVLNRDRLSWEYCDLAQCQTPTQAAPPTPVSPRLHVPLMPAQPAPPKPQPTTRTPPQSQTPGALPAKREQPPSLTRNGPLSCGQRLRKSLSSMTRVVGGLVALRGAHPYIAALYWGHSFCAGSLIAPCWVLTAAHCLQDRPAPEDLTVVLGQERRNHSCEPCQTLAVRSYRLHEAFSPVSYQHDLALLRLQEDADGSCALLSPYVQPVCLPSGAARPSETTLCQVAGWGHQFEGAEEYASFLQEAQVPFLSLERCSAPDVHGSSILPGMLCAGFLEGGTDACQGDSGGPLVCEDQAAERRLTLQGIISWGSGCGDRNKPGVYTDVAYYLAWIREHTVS

[13] = target: T6, Sentrin-specific protease 8; assay type: functional; remark: listed apart in the source
[14] = target: T8, Corticotropin-releasing factor receptor 2/Corticotropin-releasing factor-binding protein (Homo sapiens, UniProt P24387+Q13324); test: Dose Response confirmation of uHTS hits for small molecule antagonists of the CRF-binding protein and CRF-R2 receptor complex.; assay type: functional; details: read-out: IC50_Mean
T8 sequence (Q13324 whole entry): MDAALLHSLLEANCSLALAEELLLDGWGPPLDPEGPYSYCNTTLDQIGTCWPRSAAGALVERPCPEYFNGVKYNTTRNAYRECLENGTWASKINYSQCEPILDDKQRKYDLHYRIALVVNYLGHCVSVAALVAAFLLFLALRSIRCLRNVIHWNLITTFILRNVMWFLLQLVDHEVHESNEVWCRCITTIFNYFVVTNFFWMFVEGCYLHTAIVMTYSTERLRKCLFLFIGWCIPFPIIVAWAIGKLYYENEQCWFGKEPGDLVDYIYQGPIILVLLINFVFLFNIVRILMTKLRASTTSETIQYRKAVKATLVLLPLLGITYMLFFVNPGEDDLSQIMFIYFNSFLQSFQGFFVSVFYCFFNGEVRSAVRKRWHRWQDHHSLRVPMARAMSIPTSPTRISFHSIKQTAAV
T8 sequence (P24387 whole entry): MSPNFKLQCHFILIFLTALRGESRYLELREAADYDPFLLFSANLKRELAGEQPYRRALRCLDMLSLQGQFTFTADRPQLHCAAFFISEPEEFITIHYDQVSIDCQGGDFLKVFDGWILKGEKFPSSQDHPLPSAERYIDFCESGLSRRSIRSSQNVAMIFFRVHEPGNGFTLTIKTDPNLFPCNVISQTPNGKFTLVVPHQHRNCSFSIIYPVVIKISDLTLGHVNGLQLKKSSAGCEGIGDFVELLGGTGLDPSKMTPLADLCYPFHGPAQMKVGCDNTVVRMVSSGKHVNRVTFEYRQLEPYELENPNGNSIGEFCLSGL

[15] = blockers of CRF-binding protein–CRF-R2 complex – cell-based, uHTS hits, 384-well, dose response (AID 651639); assay type: functional, Homo sapiens; details: read-out: IC50_Mean
[16] = target: T8, Corticotropin-releasing factor receptor 2/Corticotropin-releasing factor-binding protein; test: activators of CRF receptor 2 with binding protein – uHTS hits, confirmation (AID 602473); assay type: functional; details: read-out: EC50_Mean
[17] = target: T1, Heat shock factor protein 1; test: enhancement of HSF1-driven luciferase signal – cell-based, NIH3T3, luminescence, dose retest, confirmation (AID 435004); assay type: functional;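 further: stress induced by proteasome inhibitor MG132 added 30 min after compound; luciferase reporter driven by HSF1 response element in NIH3T3 cells; actives raise luminescence as potentiators of the MG132 stress response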
[18] = target: Mitochondrial peptide methionine sulfoxide reductase (Bos taurus, UniProt P54149); test: Absorbance-based biochemical high throughput dose response assay for activators of Methionine sulfoxide reductase A (MsrA).; assay type: functional
Mitochondrial peptide methionine sulfoxide reductase, sequence (P54149 whole entry): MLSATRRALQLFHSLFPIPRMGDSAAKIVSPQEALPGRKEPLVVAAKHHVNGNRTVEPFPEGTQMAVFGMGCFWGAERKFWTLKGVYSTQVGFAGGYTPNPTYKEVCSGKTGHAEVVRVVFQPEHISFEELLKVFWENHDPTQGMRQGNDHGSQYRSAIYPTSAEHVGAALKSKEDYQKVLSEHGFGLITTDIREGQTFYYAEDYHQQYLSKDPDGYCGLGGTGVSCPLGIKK

Protein Wnt-3a = Protein Wnt-3a (Mus musculus, UniProt P27467); test: antagonism of Wnt3a pathway luciferase reporter – Wnt-LIGHT cells, luminescence, selectivity assay for Gli-SUFU antagonist project, dose response (AID 651570); assay type: functional; details: read-out: IC50_Mean;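 further: Wnt-LIGHT reporter cells stimulated with conditioned medium from Wnt3a-producing cells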
Protein Wnt-3a, sequence (P27467 whole entry): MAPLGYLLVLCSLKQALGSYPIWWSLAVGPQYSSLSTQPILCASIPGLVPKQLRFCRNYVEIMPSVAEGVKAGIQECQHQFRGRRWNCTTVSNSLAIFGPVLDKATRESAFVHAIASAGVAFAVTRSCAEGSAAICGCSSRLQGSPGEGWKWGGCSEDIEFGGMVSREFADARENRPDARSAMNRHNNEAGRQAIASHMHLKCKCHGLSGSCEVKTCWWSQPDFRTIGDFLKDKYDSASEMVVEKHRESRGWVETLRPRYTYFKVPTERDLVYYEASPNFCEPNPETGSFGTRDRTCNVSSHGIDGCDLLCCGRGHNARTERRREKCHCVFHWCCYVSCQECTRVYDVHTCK

INS1 = test: INS-1E survival protection against cytokine death – cell-based, luminescence, retest, dose response (AID 449756); assay type: functional; details: Rattus norvegicus;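 further: cell death triggered by IL-1 beta plus TNF-alpha plus IFN-gamma mixture; protective hits raise ATP signal compared with cytokine alone wells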
[19] = target: Hepatocyte nuclear factor 4-alpha (Homo sapiens, UniProt P41235); assay type: functional, cell-based;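 further: biochemical luminescence-based dose-response counterscreen measuring inhibition of HNF4 dimerization, run alongside a screen for blockers of ABHD5–perilipin-5 interaction; split luciferase complementation of HNF4 fusion proteins in cell lysate measuring dimerization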
Hepatocyte nuclear factor 4-alpha, sequence (P41235 whole entry, the tested form may be a part): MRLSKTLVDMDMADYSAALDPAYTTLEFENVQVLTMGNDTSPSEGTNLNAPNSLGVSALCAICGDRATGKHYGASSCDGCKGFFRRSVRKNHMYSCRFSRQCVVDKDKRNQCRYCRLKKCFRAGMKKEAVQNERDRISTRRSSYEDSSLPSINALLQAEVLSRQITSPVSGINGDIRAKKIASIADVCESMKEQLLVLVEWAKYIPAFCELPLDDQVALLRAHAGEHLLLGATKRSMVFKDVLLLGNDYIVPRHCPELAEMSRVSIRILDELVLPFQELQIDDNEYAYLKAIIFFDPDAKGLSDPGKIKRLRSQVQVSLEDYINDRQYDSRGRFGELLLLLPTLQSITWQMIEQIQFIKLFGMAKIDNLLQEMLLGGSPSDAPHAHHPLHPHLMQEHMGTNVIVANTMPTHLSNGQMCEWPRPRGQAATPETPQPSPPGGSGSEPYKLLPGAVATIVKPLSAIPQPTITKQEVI

[20] = target: T9, ATP-dependent translocase ABCB1 (Homo sapiens, UniProt P08183); test: inhibition of BCRP-mediated JC-1 efflux – Ig-MXP3 cells, flow cytometry, set 2, dose response (AID 504566); assay type: functional; details: read-out: EC50_MICROM_;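 further: flow cytometry median green fluorescence of retained JC-1 dye; potency of efflux pump inhibition measured as rising substrate retention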
T9 sequence (P08183 whole entry): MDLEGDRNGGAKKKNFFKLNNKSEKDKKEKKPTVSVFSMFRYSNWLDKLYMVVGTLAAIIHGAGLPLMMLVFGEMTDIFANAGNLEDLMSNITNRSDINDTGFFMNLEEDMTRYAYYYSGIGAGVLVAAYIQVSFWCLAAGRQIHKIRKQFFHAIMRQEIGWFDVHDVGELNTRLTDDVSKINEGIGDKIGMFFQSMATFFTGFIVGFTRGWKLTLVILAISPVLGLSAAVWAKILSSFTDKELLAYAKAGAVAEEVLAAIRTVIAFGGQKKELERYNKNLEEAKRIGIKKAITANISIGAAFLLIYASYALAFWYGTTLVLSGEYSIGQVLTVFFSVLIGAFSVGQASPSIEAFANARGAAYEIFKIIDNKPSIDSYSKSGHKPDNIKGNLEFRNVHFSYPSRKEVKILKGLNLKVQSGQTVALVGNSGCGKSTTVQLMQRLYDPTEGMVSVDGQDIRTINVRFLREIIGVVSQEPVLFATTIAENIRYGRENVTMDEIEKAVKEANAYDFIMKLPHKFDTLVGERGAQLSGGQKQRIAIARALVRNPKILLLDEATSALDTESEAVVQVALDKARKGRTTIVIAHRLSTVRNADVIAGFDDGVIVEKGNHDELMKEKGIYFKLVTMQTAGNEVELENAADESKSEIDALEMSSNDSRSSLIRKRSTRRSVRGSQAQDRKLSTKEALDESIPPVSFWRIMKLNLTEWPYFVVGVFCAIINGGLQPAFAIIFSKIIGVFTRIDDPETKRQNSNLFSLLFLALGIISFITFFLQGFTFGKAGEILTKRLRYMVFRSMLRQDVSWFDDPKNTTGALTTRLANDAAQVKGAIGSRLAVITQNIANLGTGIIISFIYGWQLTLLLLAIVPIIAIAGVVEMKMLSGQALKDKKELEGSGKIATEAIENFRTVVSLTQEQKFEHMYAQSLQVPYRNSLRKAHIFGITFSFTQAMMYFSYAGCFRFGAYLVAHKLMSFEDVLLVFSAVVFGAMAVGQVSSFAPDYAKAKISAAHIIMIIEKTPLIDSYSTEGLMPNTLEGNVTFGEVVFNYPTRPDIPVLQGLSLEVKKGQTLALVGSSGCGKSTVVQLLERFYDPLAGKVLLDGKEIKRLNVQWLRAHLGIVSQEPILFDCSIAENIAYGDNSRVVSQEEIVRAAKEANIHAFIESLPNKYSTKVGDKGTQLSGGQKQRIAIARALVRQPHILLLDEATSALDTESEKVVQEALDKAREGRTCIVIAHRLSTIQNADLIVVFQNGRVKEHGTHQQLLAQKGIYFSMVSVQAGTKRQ

[21] = target: T9, ATP-dependent translocase ABCB1; test: P-gp JC-1 efflux blockade concentration-response – Jurkat-DNR cells, flow cytometry, set 2, dose response (AID 504569); assay type: functional; details: read-out: EC50_MICROM_;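 further: potency of pump inhibitors that raise cellular JC-1 green fluorescence up to the nicardipine level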

Potassium voltage-gated channel subfamily KQT member 2, sequence (O88943 whole entry): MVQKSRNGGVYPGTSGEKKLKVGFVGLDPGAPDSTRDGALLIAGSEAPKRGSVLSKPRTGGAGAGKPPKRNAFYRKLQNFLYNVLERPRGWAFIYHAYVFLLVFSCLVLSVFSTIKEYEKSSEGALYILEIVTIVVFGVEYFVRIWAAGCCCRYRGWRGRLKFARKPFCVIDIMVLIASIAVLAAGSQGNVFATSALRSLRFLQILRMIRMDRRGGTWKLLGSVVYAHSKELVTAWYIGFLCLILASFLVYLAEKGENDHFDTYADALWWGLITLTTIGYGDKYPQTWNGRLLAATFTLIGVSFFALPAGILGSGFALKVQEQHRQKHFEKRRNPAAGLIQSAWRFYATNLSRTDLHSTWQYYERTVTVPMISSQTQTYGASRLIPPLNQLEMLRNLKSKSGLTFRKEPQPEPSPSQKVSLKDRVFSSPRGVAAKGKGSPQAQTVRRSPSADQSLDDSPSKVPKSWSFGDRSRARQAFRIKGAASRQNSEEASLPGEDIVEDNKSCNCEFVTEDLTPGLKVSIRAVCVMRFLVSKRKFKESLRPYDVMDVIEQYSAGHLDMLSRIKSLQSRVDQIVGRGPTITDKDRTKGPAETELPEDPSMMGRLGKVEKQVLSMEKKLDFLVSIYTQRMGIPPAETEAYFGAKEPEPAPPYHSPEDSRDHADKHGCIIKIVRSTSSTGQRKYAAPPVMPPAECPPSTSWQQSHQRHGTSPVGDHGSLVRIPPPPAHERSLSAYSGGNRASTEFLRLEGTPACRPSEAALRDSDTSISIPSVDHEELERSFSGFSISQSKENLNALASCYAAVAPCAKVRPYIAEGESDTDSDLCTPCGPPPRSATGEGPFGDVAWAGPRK

In the case of COc1cccc(-c2nc(CS(=O)(=O)CC(=O)NC3CCCc4ccccc43)c(C)o2)c1 (configuration not stated), the IC50 [1] was 0.869 µM (active).
With CCOC(=O)N1C(=O)[C@@](CC)(c2ccccc2)N1C(=O)OCC the EC50 [2] was > 195 µM (not active), the IC50 [3] was 0.173 µM (active) and the AC50 [4] was 12.5 µM (active).
For COc1ccc(N2CCC(CNC(=O)Nc3ccc(Cl)cc3)C2)cc1 (configuration not stated), the IC50 [5] was 83.3 µM (inactive), the IC50 [6] was 27.3 µM (inactive) and the IC50 [7] was 38.4 µM (inactive). The IC50 [8] was > 54 µM (not active).
For Cc1cccc(N(C(=O)Cn2nnc3ccccc32)C(C(=O)NC(C)(C)C)c2ccsc2)c1 (configuration not stated), the AC50 (Vero) was 31.3 µM (active).
In the case of O=C(Nc1cnc(O)nc1O)c1cc([N+](=O)[O-])cc([N+](=O)[O-])c1, the EC50 [9] was 2.7 µM (active) and the EC50 [10] was 3.9 µM (active).
For COc1cccc(CNC(=O)COC(=O)c2ccc(C(=O)c3ccccc3)cc2)c1, the AC50 [11] was 79.3 µM (active).
For COc1ccc(N2C(=O)[C@@H]3[C@H](C2=O)[C@H]2c4ccccc4C=CN2[C@@H]3C(=O)Nc2ccccc2)cc1, the IC50 (Caspase-3) was 12.4 µM (active), the IC50 [12] was 3.72 µM (active) and the IC50 (Coagulation factor XII) was > 50 µM (inactive). The IC50 [13] was 16.7 µM (active).
With CC1(C)C2CC=C(/C=N/NC(=O)c3ccccc3O)C1C2 (configuration not stated) the IC50 [14] was 5.3 µM (active), the IC50 [15] was > 20 µM (inactive) and the EC50 [16] was 31.1 µM (active).
In the case of Nc1nc2ccccc2n1/N=C/c1ccc([N+](=O)[O-])s1, the EC50 [17] was 4.39 µM (active), the EC50 [18] was > 104 µM (inactive) and the IC50 (Protein Wnt-3a) was 15.3 µM (active). The AC50 (INS1) was 4.11 µM (active) and the AC50 [4] was 2.81 µM (active).
In the case of COC(=O)c1cc(=O)n(Cc2ccco2)/c(=N/c2ccc(F)cc2)s1, the IC50 [19] was 5.67 µM (active).
With Cc1cccc(-c2nc3nc(C)cc(N4CCN(C(=O)c5ccco5)CC4)n3n2)c1 the EC50 [20] was 6 µM (active) and the EC50 [21] was 14.6 µM (active).
